Calls of active or inactive are those of the source. No cut-off for these calls is given here.
Key:
MCF10DCIS [1] = test: Inhibition of cell migration in human MCF10DCIS cells assessed as reduction in cell migration incubated for 3 days by crystal violet staining based transwell assay; format: functional; conditions: dose 1-20 µM, time 3.0 day
MBC26 [2] = test: Antiproliferative activity against human MBC26 cells assessed as reduction in cell viability at 20 uM for 3 days by cell titre glo assay; format: functional, cell-based; conditions: time 3.0 day
MBC26 [3] = test: Inhibition of cell migration in human MBC26 cells assessed as reduction in cell migration at 20 microM for 3 days by crystal violet staining based transwell assay; format: functional; conditions: time 3.0 day
MDA-MB-231 [4] = test: Inhibition of cell migration in human MDA-MB-231 cells assessed as reduction in cell migration incubated for 3 days by crystal violet staining based transwell assay; format: functional; conditions: dose 1-20 µM, time 3.0 day
MDA-MB-231 [5] = test: Induction of cell cycle arrest in human MDA-MB-231 cells assessed as accumulation of cells in S phase at 20 microM for 3 days by BrDU and PI staining based flow cytometric analysis (reference value: 45.7%); format: functional
MDA-MB-231 [6] = test: Induction of cell cycle arrest in human MDA-MB-231 cells assessed as accumulation of cells in G2/M phase at 10 uM for 3 days by BrDU and PI staining based flow cytometric analysis (reference value: 19.3%); format: functional
MDA-MB-231 [7] = test: Induction of cell cycle arrest in human MDA-MB-231 cells assessed as accumulation of cells in G0/G1 phase at 10 nM for 3 days by BrDU and PI staining based flow cytometric analysis (reference value: 30.5%); format: functional
MBC2 [8] = test: Antiproliferative activity against human MBC2 cells assessed as reduction in cell viability at 20 uM for 3 days by cell titre glo assay; format: functional, cell-based; conditions: time 3.0 day
MDA-MB-231 [9] = test: Induction of cell cycle arrest in human MDA-MB-231 cells assessed as accumulation of cells in not cycling S phase at 20 microM for 3 days by BrDU and PI staining based flow cytometric analysis (reference value: 2.5%); format: functional
MDA-MB-231 [10] = test: Induction of cell cycle arrest in human MDA-MB-231 cells assessed as accumulation of cells in G0/G1 phase at 20 microM for 3 days by BrDU and PI staining based flow cytometric analysis (reference value: 30.5%); format: functional; conditions: time 3 day
MCF-10A = test: Inhibition of cell migration in human MCF-10A cells assessed as reduction in cell migration incubated for 3 days by crystal violet staining based transwell assay; format: functional; conditions: dose 1-20 µM, time 3.0 day
MDA-MB-231 [11] = test: Induction of cell cycle arrest in human MDA-MB-231 cells assessed as accumulation of cells in G2/M phase at 20 microM for 3 days by BrDU and PI staining based flow cytometric analysis (reference value: 19.3%); format: functional; conditions: time 3 day
MDA-MB-231 [12] = test: Induction of cell cycle arrest in human MDA-MB-231 cells assessed as accumulation of cells in G2/M phase at 10 nM for 3 days by BrDU and PI staining based flow cytometric analysis (reference value: 19.3%); format: functional
MDA-MB-231 [13] = test: Induction of cell cycle arrest in human MDA-MB-231 cells assessed as accumulation of cells in G0/G1 phase at 10 uM for 3 days by BrDU and PI staining based flow cytometric analysis (reference value: 30.5%); format: functional
MBC2 [14] = test: Inhibition of cell migration in human MBC2 cells assessed as reduction in cell migration at 20 microM for 3 days by crystal violet staining based transwell assay; format: functional; conditions: time 3.0 day
MDA-MB-231 [15] = test: Cytotoxicity against human MDA-MB-231 cells assessed as cell viability at 10 nM for 3 days in presence of galunisertib relative to control; format: functional; conditions: MDA-MB-231, 72 h, time 3 day, read-out: Activity
MDA-MB-231 [16] = test: Induction of cell cycle arrest in human MDA-MB-231 cells assessed as accumulation of cells in S phase at 10 nM for 3 days in presence of OCIR-9429 by BrDU and PI staining based flow cytometric analysis (reference value: 45.7%); format: functional; conditions: time 3 day
MDA-MB-231 [17] = test: Induction of cell cycle arrest in human MDA-MB-231 cells assessed as cleaved PARP at 10 nM for 3 days in presence of galunisertib by Western blot analysis; format: functional, cell-based; conditions: time 3.0 day
MDA-MB-231 [18] = test: Induction of cell cycle arrest in human MDA-MB-231 cells assessed as cleaved PARP at 10 nM for 3 days in presence of OICR-9429 by Western blot analysis; format: functional, cell-based; conditions: time 3.0 day
MDA-MB-231 [19] = test: Induction of cell cycle arrest in human MDA-MB-231 cells assessed as DNA damage by measuring gamma H2AX phosphorylation at 10 nM for 3 days in presence of galunisertib by Western blot analysis; format: functional, cell-based; conditions: time 3.0 day
MDA-MB-231 [20] = test: Induction of cell cycle arrest in human MDA-MB-231 cells assessed as accumulation of cells in G2/M phase at 10 nM for 3 days in presence of galunisertib by BrDU and PI staining based flow cytometric analysis (reference value: 19.3%); format: functional; conditions: time 3 day
MDA-MB-231 [21] = test: Cytotoxicity against human MDA-MB-231 cells assessed as cell viability at 10 nM for 3 days in presence of OCIR-9429 relative to control; format: functional; conditions: MDA-MB-231, 72 h, time 3 day, read-out: Activity
MDA-MB-231 [22] = test: Induction of cell cycle arrest in human MDA-MB-231 cells assessed as accumulation of cells in S phase at 10 nM for 3 days in presence of galunisertib by BrDU and PI staining based flow cytometric analysis (reference value: 45.7%); format: functional; conditions: time 3 day
MBC26 [23] = test: Cytotoxicity against human MBC26 cells assessed as cell viability for 3 days at 1 to 10 nM in presence of -Gaulnisertib; format: functional, cell-based; conditions: dose 1-10 nM, time 3.0 day
MDA-MB-231 [24] = test: Induction of cell cycle arrest in human MDA-MB-231 cells assessed as DNA damage by measuring gamma H2AX phosphorylation at 10 nM for 3 days in presence of OICR-9429 by Western blot analysis; format: functional, cell-based; conditions: time 3.0 day
MDA-MB-231 [25] = test: Induction of cell cycle arrest in human MDA-MB-231 cells assessed as accumulation of cells in S phase at 10 nM for 3 days by BrDU and PI staining based flow cytometric analysis (reference value: 45.7%); format: functional
MBC26 [26] = test: Cytotoxicity against human MBC26 cells assessed as cell viability for 3 days at 1 to 10 nM in presence of OCIR-9429; format: functional, cell-based; conditions: dose 1-10 nM, time 3.0 day
MDA-MB-231 [27] = test: Induction of cell cycle arrest in human MDA-MB-231 cells assessed as accumulation of cells in G0/G1 phase at 10 nM for 3 days in presence of OCIR-9429 by BrDU and PI staining based flow cytometric analysis (reference value: 30.5%); format: functional; conditions: time 3 day
MDA-MB-231 [28] = test: Induction of cell cycle arrest in human MDA-MB-231 cells assessed as accumulation of cells in not cycling S phase at 10 nM for 3 days in presence of OCIR-9429 by BrDU and PI staining based flow cytometric analysis (reference value: 2.5%); format: functional; conditions: time 3 day
MBC2 [29] = test: Cytotoxicity against human MBC2 cells assessed as cell viability at 1 to 10 nM for 3 days in presence of galunisertib; format: functional, cell-based; conditions: dose 1-10 nM, time 3.0 day
MDA-MB-231 [30] = test: Induction of cell cycle arrest in human MDA-MB-231 cells assessed as accumulation of cells in not cycling S phase at 10 nM for 3 days in presence of galunisertib by BrDU and PI staining based flow cytometric analysis (reference value: 2.5%); format: functional; conditions: time 3 day
MDA-MB-231 [31] = test: Induction of cell cycle arrest in human MDA-MB-231 cells assessed as accumulation of cells in G2/M phase at 10 nM for 3 days in presence of OCIR-9429 by BrDU and PI staining based flow cytometric analysis (reference value: 19.3%); format: functional; conditions: time 3 day
MBC2 [32] = test: Cytotoxicity against human MBC2 cells assessed as cell viability at 1 to 10 nM for 3 days in presence of OCIR-9429; format: functional, cell-based; conditions: dose 1-10 nM, time 3.0 day
MDA-MB-231 [33] = test: Induction of cell cycle arrest in human MDA-MB-231 cells assessed as accumulation of cells in not cycling S phase at 10 nM for 3 days by BrDU and PI staining based flow cytometric analysis (reference value: 2.5%); format: functional
MDA-MB-231 [34] = test: Induction of cell cycle arrest in human MDA-MB-231 cells assessed as accumulation of cells in G0/G1 phase at 10 nM for 3 days in presence of galunisertib by BrDU and PI staining based flow cytometric analysis (reference value: 30.5%); format: functional; conditions: time 3 day
MDA-MB-231 [35] = test: Inhibition of cell migration in human MDA-MB-231 cells assessed as reduction in cell migration at 10 microM for 3 days by crystal violet staining based transwell assay; format: functional; conditions: time 3.0 day
MBC2 [36] = test: Antiproliferative activity against human MBC2 cells assessed as reduction in cell viability at 10 uM for 3 days by cell titre glo assay; format: functional, cell-based; conditions: time 3.0 day
MCF10DCIS [37] = test: Inhibition of cell migration in human MCF10DCIS cells assessed as reduction in cell migration at 10 microM for 3 days by crystal violet staining based transwell assay; format: functional; conditions: time 3.0 day
MDA-MB-231 [38] = test: Induction of cell cycle arrest in human MDA-MB-231 cells assessed as accumulation of cells in S phase at 10 uM for 3 days by BrDU and PI staining based flow cytometric analysis (reference value: 45.7%); format: functional; conditions: time 3 day
MBC26 [39] = test: Antiproliferative activity against human MBC26 cells assessed as reduction in cell viability at 10 uM for 3 days by cell titre glo assay; format: functional, cell-based; conditions: time 3.0 day
MDA-MB-231 [40] = test: Induction of cell cycle arrest in human MDA-MB-231 cells assessed as accumulation of cells in not cycling S phase at 10 uM for 3 days by BrDU and PI staining based flow cytometric analysis (reference value: 2.5%); format: functional; conditions: time 3 day

Structure (SMILES): CN1CCN(c2ccc(-c3cccc(CN4CCOCC4)c3)cc2NC(=O)c2c[nH]c(=O)cc2C(F)(F)F)CC1
- inhibition (MCF10DCIS [1]): Dose-Dependent Effect
- Activity (MBC26 [2]): inactive
- inhibition (MBC26 [3]): Active
- inhibition (MDA-MB-231 [4]): Dose-Dependent Effect
- Activity (MDA-MB-231 [5]; time 3 day): 46%
- Activity (MDA-MB-231 [6]; time 3.0 day): Active
- Activity (MDA-MB-231 [7]; time 3.0 day): Active
- Activity (MBC2 [8]): inactive
- Activity (MDA-MB-231 [9]; time 3 day): 2.2%
- Activity (MDA-MB-231 [10]): 32.3%
- inhibition (MCF-10A): inactive
- Activity (MDA-MB-231 [11]): 19.1%
- Activity (MDA-MB-231 [12]; time 3.0 day): Active
- Activity (MDA-MB-231 [13]; time 3.0 day): inactive
- inhibition (MBC2 [14]): Active

Structure (SMILES): CC(=O)O[C@H]1C(=O)[C@@]2(C)[C@H]([C@H](OC(=O)c3ccccc3)[C@]3(O)C[C@H](OC(=O)[C@H](O)[C@@H](NC(=O)c4ccccc4)c4ccccc4)C(C)=C1C3(C)C)[C@]1(OC(C)=O)CO[C@@H]1C[C@@H]2O [PACLITAXEL]
- viability at 0.01 µM (MDA-MB-231 [15]): 10%
- Activity (MDA-MB-231 [16]): 26.7%
- Activity (MDA-MB-231 [17]): Active
- Activity (MDA-MB-231 [18]): Active
- Activity (MDA-MB-231 [19]): Active
- Activity (MDA-MB-231 [20]): 40.1%
- Activity (MDA-MB-231 [7]; time 3 day): 19.2%
- viability at 0.01 µM (MDA-MB-231 [21]): 10%
- Activity (MDA-MB-231 [22]): 34%
- Activity (MBC26 [23]): Active
- Activity (MDA-MB-231 [24]): Active
- Activity (MDA-MB-231 [25]; time 3 day): 38.6%
- Activity (MBC26 [26]): Active
- Activity (MDA-MB-231 [27]): 22.4%
- Activity (MDA-MB-231 [28]): 11.9%
- Activity (MBC2 [29]): Active
- Activity (MDA-MB-231 [30]): 8%
- Activity (MDA-MB-231 [31]): 37.5%
- Activity (MBC2 [32]): Active
- Activity (MDA-MB-231 [33]; time 3 day): 9.2%
- Activity (MDA-MB-231 [34]): 16.7%
- Activity (MDA-MB-231 [12]; time 3 day): 31.7%

Structure (SMILES): Cc1cccc(-c2nn3c(c2-c2ccnc4ccc(C(N)=O)cc24)CCC3)n1 [GALUNISERTIB]
- inhibition (MDA-MB-231 [35]): Active
- Activity (MBC2 [36]): inactive
- inhibition (MCF10DCIS [37]): Active
- Activity (MDA-MB-231 [5]; time 3.0 day): inactive
- Activity (MDA-MB-231 [6]; time 3 day): 18.5%
- Activity (MDA-MB-231 [25]; time 3.0 day): Active
- Activity (MDA-MB-231 [9]; time 3.0 day): inactive
- Activity (MDA-MB-231 [33]; time 3.0 day): Active
- Activity (MDA-MB-231 [38]): 48.8%
- Activity (MBC26 [39]): inactive
- Activity (MDA-MB-231 [13]; time 3 day): 30.4%
- Activity (MDA-MB-231 [40]): 1.5%

Source: ChEMBL document CHEMBL5712909, “WDR5 inhibition halts metastasis dissemination by repressing the mesenchymal phenotype of breast cancer cells” (2019)
